Test: behavior of agents D in water and in ethanol/water solution 40/60 v/v
Assay type: physicochemical
Description: Different compounds D are introduced into ajar containing either water (on the left in the Figures) or an ethanol/water solution in a ratio of 40/60 v/v (right jar in the Figures).

Substance | solubility in water and in ethanol/water | solubilization rate in water versus water/ethanol mixture
guar gum | soluble in water but not in the water/ethanol mixture | –
hydroxypropyl methyl cellulose [hypromellose] | – | higher in water than in the water/ethanol mixture
